# How the values were obtained:
# Experiment in all cases: relative viability (nuclei count vs DMSO), 5 days (fraction); higher = more cells survive
# HCC-366 = tested on: HCC-366
# Method in brief: (§1)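 For relative viability, nuclei counts in treated wells were divided by those in vehicle wells. Lung cancer cell lines had been pin-tool dosed in 1536-well plates the day after seeding and cultured for 5 days, then fixed and stained in one step (final 0.05% Triton X-100, 1% formaldehyde, 1 ug/ml Hoechst) and imaged at 4×. Doses were one drug alone or a fixed anchor-drug dose plus five library-drug doses (not always all listed) in √10 steps, and values are duplicate-plate medians.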
# NCI-H441 = tested on: NCI-H441
# Method in brief: as §1
# NCI-H1651 = tested on: NCI-H1651
# Method in brief: as §1
# NCI-H1734 = tested on: NCI-H1734
# Method in brief: as §1
# NCI-H1755 = tested on: NCI-H1755
# Method in brief: as §1
# NCI-H596 = tested on: NCI-H596
# Method in brief: as §1
# PC-3 [JPC-3] = tested on: PC-3 [JPC-3]
# Method in brief: as §1
# NCI-H1563 = tested on: NCI-H1563
# Method in brief: as §1
# RERF-LC-KJ = tested on: RERF-LC-KJ
# Method in brief: as §1
# NCI-H2347 = tested on: NCI-H2347
# Method in brief: as §1
# EMC-BAC-2 = tested on: EMC-BAC-2
# Method in brief: as §1
# NCI-H1650 = tested on: NCI-H1650
# Method in brief: as §1
# NCI-H1437 = tested on: NCI-H1437
# Method in brief: as §1
# CAL-12T = tested on: CAL-12T
# Method in brief: as §1
# NCI-H727 = tested on: NCI-H727
# Method in brief: as §1
# ABC-1 = tested on: ABC-1
# Method in brief: as §1
# COR-L23 = tested on: COR-L23
# Method in brief: as §1
# NCI-H3122 = tested on: NCI-H3122
# Method in brief: as §1
# UMC-11 = tested on: UMC-11
# Method in brief: as §1
# LK-2 = tested on: LK-2
# Method in brief: as §1
# SK-LU-1 = tested on: SK-LU-1
# Method in brief: as §1
# HARA = tested on: HARA
# Method in brief: as §1
# HOP-62 = tested on: HOP-62
# Method in brief: as §1
smiles,measurement,setting,value
CCNC(=O)c1noc(-c2cc(C(C)C)c(O)cc2O)c1-c1ccc(CN2CCOCC2)cc1 [Luminespib] + N=C(N)NC(=N)NCCc1ccccc1 [Phenformin] (partner 250 µM),relative viability,HCC-366; first compound 0.002 µM,0.686
same,relative viability,HCC-366; first compound 0.006325 µM,0.59
same,relative viability,HCC-366; first compound 0.02 µM,0.697
same,relative viability,HCC-366; first compound 0.06325 µM,0.0486
same,relative viability,HCC-366; first compound 0.2 µM,0.0355
same,relative viability,NCI-H441; first compound 0.002 µM,0.841
same,relative viability,NCI-H441; first compound 0.006325 µM,0.689
same,relative viability,NCI-H441; first compound 0.02 µM,0.732
same,relative viability,NCI-H441; first compound 0.06325 µM,0.216
same,relative viability,NCI-H441; first compound 0.2 µM,0.135
same,relative viability,NCI-H1651; first compound 0.002 µM,0.298
same,relative viability,NCI-H1651; first compound 0.006325 µM,0.293
same,relative viability,NCI-H1651; first compound 0.02 µM,0.304
same,relative viability,NCI-H1651; first compound 0.06325 µM,0.108
same,relative viability,NCI-H1651; first compound 0.2 µM,0.141
same,relative viability,NCI-H1734; first compound 0.002 µM,0.464
same,relative viability,NCI-H1734; first compound 0.006325 µM,0.356
same,relative viability,NCI-H1734; first compound 0.02 µM,0.3
same,relative viability,NCI-H1734; first compound 0.06325 µM,0.103
same,relative viability,NCI-H1734; first compound 0.2 µM,0.116
same,relative viability,NCI-H1755; first compound 0.002 µM,0.609
same,relative viability,NCI-H1755; first compound 0.006325 µM,0.552
same,relative viability,NCI-H1755; first compound 0.02 µM,0.552
same,relative viability,NCI-H1755; first compound 0.06325 µM,0.268
same,relative viability,NCI-H1755; first compound 0.2 µM,0.14
same,relative viability,NCI-H596; first compound 0.002 µM,0.648
same,relative viability,NCI-H596; first compound 0.006325 µM,0.621
same,relative viability,NCI-H596; first compound 0.02 µM,0.588
same,relative viability,NCI-H596; first compound 0.06325 µM,0.61
same,relative viability,NCI-H596; first compound 0.2 µM,0.58
same,relative viability,PC-3 [JPC-3]; first compound 0.002 µM,0.463
same,relative viability,PC-3 [JPC-3]; first compound 0.006325 µM,0.457
same,relative viability,PC-3 [JPC-3]; first compound 0.02 µM,0.462
same,relative viability,PC-3 [JPC-3]; first compound 0.06325 µM,0.472
same,relative viability,PC-3 [JPC-3]; first compound 0.2 µM,0.242
same,relative viability,NCI-H1563; first compound 0.002 µM,0.66
same,relative viability,NCI-H1563; first compound 0.006325 µM,0.649
same,relative viability,NCI-H1563; first compound 0.02 µM,0.597
same,relative viability,NCI-H1563; first compound 0.06325 µM,0.455
same,relative viability,NCI-H1563; first compound 0.2 µM,0.465
same,relative viability,RERF-LC-KJ; first compound 0.002 µM,0.409
same,relative viability,RERF-LC-KJ; first compound 0.006325 µM,0.418
same,relative viability,RERF-LC-KJ; first compound 0.02 µM,0.512
same,relative viability,RERF-LC-KJ; first compound 0.06325 µM,0.25
same,relative viability,RERF-LC-KJ; first compound 0.2 µM,0.238
same,relative viability,NCI-H2347; first compound 0.002 µM,0.406
same,relative viability,NCI-H2347; first compound 0.006325 µM,0.269
same,relative viability,NCI-H2347; first compound 0.02 µM,0.417
same,relative viability,NCI-H2347; first compound 0.06325 µM,0.381
same,relative viability,NCI-H2347; first compound 0.2 µM,0.198
same,relative viability,EMC-BAC-2; first compound 0.002 µM,0.529
same,relative viability,EMC-BAC-2; first compound 0.006325 µM,0.48
same,relative viability,EMC-BAC-2; first compound 0.02 µM,0.429
same,relative viability,EMC-BAC-2; first compound 0.06325 µM,0.254
same,relative viability,EMC-BAC-2; first compound 0.2 µM,0.175
same,relative viability,NCI-H1650; first compound 0.002 µM,0.48
same,relative viability,NCI-H1650; first compound 0.006325 µM,0.219
same,relative viability,NCI-H1650; first compound 0.02 µM,0.165
same,relative viability,NCI-H1650; first compound 0.06325 µM,0.15
same,relative viability,NCI-H1650; first compound 0.2 µM,0.159
same,relative viability,NCI-H1437; first compound 0.002 µM,0.325
same,relative viability,NCI-H1437; first compound 0.006325 µM,0.3
same,relative viability,NCI-H1437; first compound 0.02 µM,0.358
same,relative viability,NCI-H1437; first compound 0.06325 µM,0.173
same,relative viability,NCI-H1437; first compound 0.2 µM,0.154
same,relative viability,CAL-12T; first compound 0.002 µM,0.578
same,relative viability,CAL-12T; first compound 0.006325 µM,0.512
same,relative viability,CAL-12T; first compound 0.02 µM,0.15
same,relative viability,CAL-12T; first compound 0.06325 µM,0.101
same,relative viability,CAL-12T; first compound 0.2 µM,0.0963
same,relative viability,NCI-H727; first compound 0.002 µM,0.564
same,relative viability,NCI-H727; first compound 0.006325 µM,0.398
same,relative viability,NCI-H727; first compound 0.02 µM,0.361
same,relative viability,NCI-H727; first compound 0.06325 µM,0.318
same,relative viability,NCI-H727; first compound 0.2 µM,0.175
same,relative viability,ABC-1; first compound 0.002 µM,0.223
same,relative viability,ABC-1; first compound 0.006325 µM,0.272
same,relative viability,ABC-1; first compound 0.02 µM,0.241
same,relative viability,ABC-1; first compound 0.06325 µM,0.2
same,relative viability,ABC-1; first compound 0.2 µM,0.233
same,relative viability,COR-L23; first compound 0.002 µM,0.456
same,relative viability,COR-L23; first compound 0.006325 µM,0.367
same,relative viability,COR-L23; first compound 0.02 µM,0.457
same,relative viability,COR-L23; first compound 0.06325 µM,0.0668
same,relative viability,COR-L23; first compound 0.2 µM,0.0674
same,relative viability,NCI-H3122; first compound 0.002 µM,0.427
same,relative viability,NCI-H3122; first compound 0.006325 µM,0.32
same,relative viability,NCI-H3122; first compound 0.02 µM,0.132
same,relative viability,NCI-H3122; first compound 0.06325 µM,0.0959
same,relative viability,NCI-H3122; first compound 0.2 µM,0.0895
same,relative viability,UMC-11; first compound 0.002 µM,0.346
same,relative viability,UMC-11; first compound 0.006325 µM,0.338
same,relative viability,UMC-11; first compound 0.02 µM,0.291
same,relative viability,UMC-11; first compound 0.06325 µM,0.213
same,relative viability,UMC-11; first compound 0.2 µM,0.168
same,relative viability,LK-2; first compound 0.002 µM,0.474
same,relative viability,LK-2; first compound 0.006325 µM,0.436
same,relative viability,LK-2; first compound 0.02 µM,0.252
same,relative viability,LK-2; first compound 0.06325 µM,0.0992
same,relative viability,LK-2; first compound 0.2 µM,0.141
same,relative viability,SK-LU-1; first compound 0.002 µM,0.53
same,relative viability,SK-LU-1; first compound 0.006325 µM,0.411
same,relative viability,SK-LU-1; first compound 0.02 µM,0.192
same,relative viability,SK-LU-1; first compound 0.06325 µM,0.0958
same,relative viability,SK-LU-1; first compound 0.2 µM,0.0878
same,relative viability,HARA; first compound 0.002 µM,0.484
same,relative viability,HARA; first compound 0.006325 µM,0.422
same,relative viability,HARA; first compound 0.02 µM,0.485
same,relative viability,HARA; first compound 0.06325 µM,0.245
same,relative viability,HARA; first compound 0.2 µM,0.0594
same,relative viability,HOP-62; first compound 0.002 µM,0.674
same,relative viability,HOP-62; first compound 0.006325 µM,0.721
same,relative viability,HOP-62; first compound 0.02 µM,0.696
same,relative viability,HOP-62; first compound 0.06325 µM,0.364
same,relative viability,HOP-62; first compound 0.2 µM,0.165
